Laboratory results taken from the supplement of paper PMC10011410.
± gives the standard deviation of the averaged measurements.

How the values were obtained:
U-2 OS [1] = assay: cell viability (CellTiter-Glo) relative to DMSO (% of control); higher = more viable; conditions: 24 h
Description: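 Cell viability of U-2 OS cells by CellTiter-Glo after 24 h compound treatment at 5, 10 and 20 uM (some at 40 and 80 uM), measured in parallel with the glutathione assay, as percent of DMSO control. Five technical replicate plates, averaged.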

U-2 OS [2] = assay: relative cell count vs DMSO (cell painting) (fraction of DMSO control); higher = more cells remaining (less cytotoxic); conditions: 24 h
How it was run: (§1)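 Using 384-well plates holding about 1,500 U-2 OS cells per well, treatment was applied by pin tool for 24 h at 37 °C, generally at six 2-fold concentrations ranging from 20 μM to 625 nM. Staining with MitoTracker, concanavalin A, phalloidin, wheat germ agglutinin, Hoechst and SYTO 14 preceded Opera Phenix imaging and CellProfiler feature extraction against DMSO cells on the same plate. Activity score and cell count are both referenced to DMSO wells, the former as a Mahalanobis distance. Four replicate plates were averaged for every value.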

U-2 OS [3] = assay: cell painting activity score (Mahalanobis distance from DMSO wells); higher = stronger morphological phenotype; conditions: 24 h
How it was run: as §1

U-2 OS [4] = assay: intracellular GSH:GSSG ratio (calculated); higher = more reduced glutathione pool; conditions: 24 h
Description: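 Intracellular glutathione in U-2 OS cells after 24 h compound treatment at 5, 10 and 20 uM (some at 40 and 80 uM). Total glutathione and GSSG were measured with the GSH/GSSG-Glo kit, and the GSH:GSSG ratio was calculated. Mean of five technical replicate plates.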

U-2 OS [5] = assay: total intracellular glutathione (GSH + GSSG) relative to DMSO (% of control); higher = more glutathione; conditions: 24 h
Description: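 Total intracellular glutathione (GSH + GSSG) in U-2 OS cells by GSH/GSSG-Glo after 24 h compound treatment at 5, 10 and 20 uM (some at 40 and 80 uM), as percent of DMSO control. Five technical replicate plates, averaged.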

U-2 OS [6] = assay: AUC of culture confluence over time (live-cell imaging) (AUC (confluence % x time)); higher = more confluent culture (less growth inhibition)
How it was run: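 Using an Incucyte S3 with a 10x objective, confluence of U-2 OS cells was imaged every 4 h for up to 60 h at 37 °C. The cells had been seeded at 750 per well in 384-well plates in F-12K medium with 10% FBS and treated by pin tool 24 h later, most compounds at 20, 10 and 5 μM with 0.2% DMSO. The value given is the area under the confluence-versus-time curve.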

SMILES | cell viability (U-2 OS [1]; 5 µM) | cell viability (U-2 OS [1]; 10 µM) | cell viability (U-2 OS [1]; 20 µM) | relative cell count (U-2 OS [2]; 0.625 µM) | relative cell count (U-2 OS [2]; 1.25 µM) | relative cell count (U-2 OS [2]; 2.5 µM) | relative cell count (U-2 OS [2]; 5 µM) | relative cell count (U-2 OS [2]; 10 µM) | relative cell count (U-2 OS [2]; 20 µM) | cell painting activity score (U-2 OS [3]; 0.625 µM) | cell painting activity score (U-2 OS [3]; 1.25 µM) | cell painting activity score (U-2 OS [3]; 2.5 µM) | cell painting activity score (U-2 OS [3]; 5 µM) | cell painting activity score (U-2 OS [3]; 10 µM) | cell painting activity score (U-2 OS [3]; 20 µM) | intracellular GSH:GSSG ratio (U-2 OS [4]; 5 µM) | intracellular GSH:GSSG ratio (U-2 OS [4]; 10 µM) | intracellular GSH:GSSG ratio (U-2 OS [4]; 20 µM) | total intracellular glutathione (U-2 OS [5]; 5 µM) | total intracellular glutathione (U-2 OS [5]; 10 µM) | total intracellular glutathione (U-2 OS [5]; 20 µM) | cell viability (U-2 OS [1]; 40 µM) | cell viability (U-2 OS [1]; 80 µM) | relative cell count (U-2 OS [2]; 40 µM) | relative cell count (U-2 OS [2]; 80 µM) | cell painting activity score (U-2 OS [3]; 40 µM) | cell painting activity score (U-2 OS [3]; 80 µM) | intracellular GSH:GSSG ratio (U-2 OS [4]; 40 µM) | intracellular GSH:GSSG ratio (U-2 OS [4]; 80 µM) | AUC of culture confluence over time (U-2 OS [6]; 5 µM) | AUC of culture confluence over time (U-2 OS [6]; 10 µM) | AUC of culture confluence over time (U-2 OS [6]; 20 µM) | AUC of culture confluence over time (U-2 OS [6]; 40 µM) | AUC of culture confluence over time (U-2 OS [6]; 80 µM)
C=CC(=O)N1CCN(c2ncnc3c(F)c(-c4c(O)cccc4F)c(Cl)cc23)CC1 | 91.3 ± 4.4 | 89.2 ± 6.2 | 100 ± 6.9 | 0.691 | 0.719 | 0.571 | 0.555 | 0.531 | 0.516 | 10.3 | 8.82 | 11.4 | 11 | 11.8 | 16 | 18.9 | 16.4 | 11.6 | 105 ± 3.9 | 104 ± 3.3 | 102 ± 3.2 |  |  |  |  |  |  |  |  |  |  |  |  | 
C=CC(=O)Nc1cccc(Nc2nc(Nc3ccc(Oc4ccnc(C(=O)NC)c4)cc3)ncc2F)c1 | 75.8 ± 3.4 | 59.5 ± 6.1 | 1.84 ± 1.1 | 1 | 0.96 | 0.987 | 0.953 | 0.961 | 0.93 | 4.92 | 4.2 | 6.51 | 4.99 | 8.06 | 9.39 | 17.7 | 5.85 | 2.15 | 64.2 ± 2 | 55.9 ± 4.7 | 5.78 ± 1.6 |  |  |  |  |  |  |  |  |  |  |  |  | 
COc1cc(/C=C/c2cc(/C=C/c3ccc(O)c(OC)c3)n(-c3ccc(C(=O)[O-])cc3)n2)ccc1O.[Na+] | 101 ± 2.3 | 95.6 ± 2.5 | 93.6 ± 3.2 | 1.04 | 1.08 | 1.05 | 1.07 | 1.09 | 1.05 | 7.1 | 4.98 | 6.19 | 4.45 | 6.38 | 6.87 | 40 | 33 | 36.1 |  |  |  | 89.6 ± 3.4 | 68.4 ± 3.8 | 0.866 | 0.789 | 5.98 | 9 | 30.8 | 11.8 | 45.1 | 42.2 | 42.1 | 27.3 | 25.3
CCOc1ccccc1-n1c(C(C)N2CCN(C(=O)COc3ccc(Cl)cc3)CC2)nc2ccccc2c1=O (stereo not drawn) | 102 ± 3.5 | 95.2 ± 4.2 | 40.6 ± 14 | 0.983 | 0.945 | 0.996 | 0.969 | 0.922 | 0.508 | 6.32 | 5.84 | 6.59 | 9.13 | 10.4 | 14.2 |  |  |  | 10.4 ± 0.54 | 2.5 ± 0.32 | 1.15 ± 0.16 |  |  |  |  |  |  |  |  | 45 | 40 | 39.9 |  | 
Oc1cccc(-c2nc(N3CCOCC3)c3oc4ncccc4c3n2)c1 | 58.4 ± 1.5 | 56.8 ± 2.5 | 55.17 ± 0.53 | 0.904 | 0.875 | 0.774 | 0.734 | 0.738 | 0.682 | 9.68 | 11.3 | 11.4 | 11.6 | 10 | 11.3 | 22.3 | 19.6 | 20.9 | 58.8 ± 2.2 | 60.1 ± 3.8 | 58.6 ± 2.4 |  |  |  |  |  |  |  |  |  |  |  |  | 
CCCCCCCCCCCC1=C(O)C(=O)C=C(O)C1=O | 102 ± 5.8 | 97.6 ± 2.5 | 98.7 ± 5.4 | 0.898 | 0.848 | 0.944 | 0.907 | 0.478 | 0.08 | 4.78 | 4.55 | 7.31 | 4.7 | 8.2 | 25 | 32.2 | 27.4 | 35.5 |  |  |  | 70.1 ± 25 | 93.3 ± 4.2 | 0.237 | 0.332 | 22.2 | 21.8 | 15.8 | 31.4 |  |  |  |  | 
COC(=O)c1ccc([C@H]2c3[nH]c4ccccc4c3C[C@H](C(=O)OC)N2C(=O)CCl)cc1 | 69.6 ± 4.1 | 49.1 ± 4.9 | 6.2 ± 1.6 | 0.876 | 0.867 | 0.818 | 0.68 | 0.524 | 0.186 | 10.3 | 10.7 | 11.1 | 10.8 | 10 | 17.9 | 3.83 | 3.98 | 1.09 | 93.1 ± 5.2 | 75.3 ± 6.4 | 10.7 ± 1.2 |  |  |  |  |  |  |  |  |  |  |  |  | 
O=C1C(NCCN2CCOCC2)=C(Cl)C(=O)c2ncccc21 | 0.456 ± 0.11 | 0.267 ± 0.043 | 0.463 ± 0.11 | 0.572 | 0.496 | 0.191 | 0.0808 | 0.0881 | 0.111 | 13.7 | 13.9 | 19.1 | 25.9 | 25.2 | 24.1 |  |  |  | 2.27 ± 0.32 | 1.68 ± 0.27 | 2.13 ± 0.32 |  |  |  |  |  |  |  |  | 13.2 | 12.9 | 13 |  | 
